Test results: paper PMC6279743, “A small molecule ApoE4-targeted therapeutic candidate that normalizes sirtuin 1 levels and improves cognition in an Alzheimer’s disease mouse model” (Scientific Reports, 2018)
pEC50: −log10 of the molar value. Read-outs that look alike come from different tables or passages of the source.

System: SirT1 levels in N2a-E4 cells
Experiment: SirT1 AlphaLISA in N2a-E4 cells (HTS, secondary and dose-response testing)
Format: cell-based, murine
Settings: for pEC50: Mus musculus
Procedure: For HTS we tested a portion of the UCLA compound library (10 plates) including the NIH Clinical Collection library (3 plates). Complete medium (25 µL) was added to each well of 384-well plates, then library compounds were added (250 nL) followed by a suspension of 4 × 10^5 cells/mL murine neuroblastoma N2a cells (25 μL) stably transfected with ApoE4 (N2a-E4). After incubation of the N2a-E4 cells with compounds for 24 hrs at 37 °C and 5% CO2, all but ~6 μL of medium were removed and AlphaLISA Lysis Buffer complemented with HALT protease/phosphatase inhibitor (20 μL, 1X final) was added to each well. To maximize lysis, the plates were frozen at −80 °C. For the AlphaLISA, lysates were thawed and vortexed for 1 min at 3000 rpm.
The AlphaLISA comprises streptavidin donor beads, biotinylated anti-SirT1 N-terminal antibody (19A7AB4), and acceptor beads conjugated to the anti-SirT1 C-terminal antibody (1F3); when the target protein is bound by both antibodies, the beads are in close enough proximity for a transfer of ^1O2 and emission of a detectable signal (Supplementary Fig. S3). For the AlphaLISA, a 384-proxy plate was preloaded with AlphaLISA buffer (2 µL, 1X) with HALT (1X), then cell lysate (2 μL) was transferred to the proxy plate followed by the antibody-mix (2 μL). After incubation at room temperature for 1 hr, the donor bead mixture was added (2 µL) and incubated for an additional 30 min. The plates were then read in an Envision plate reader. All points are one replicate. The standard curve is generated by serial dilution of recombinant SirT1 to assess the linear range of the assay; study samples undergo serial dilution as well. We use A03 as a positive control in the HTS assay. The Z-value, while not ideal, was <1 for the assay (Supplementary Fig. S3).
Compound in medium (50 µL, 2X) was loaded into a 96-well plate, then 4 × 10^4 cells were added to each well; 24 hrs later the medium was removed and cells lysed. Lysate protein concentration was determined using the Bradford assay according to the manufacturer’s instructions. SirT1 was determined in lysates using the SirT1 AlphaLISA as described above.

Structure (SMILES): CC(N)C(=O)OC(C)(C)Cc1ccc(Cl)cc1 (centres unmarked) [A03, alaproclate]
- pEC50 (read-out: EC50 for enhancement of SirT1, N2a-E4 cells, dose-response curve, n = 3 at each concentration): 5.64
- pEC50 (N2a-E4 cells, dose-response curve, n = 3 at each concentration, read-out: EC50 for enhancement of SirT1): 5.70
- Dose-response increase in SirT1 in secondary testing (N2a-E4 cells, 1, 5 and 10 μM): showed a dose-response
- SirT1 increase, racemate vs enantiomers (N2a-E4 cells, 5 and 50 μM, n = 3 wells): increase SirT1 in N2a-E4 with high significance
- SirT1 level in HTS (N2a-E4 cells, 24 hrs, NIH Clinical Collection screen, A03 5 μM as positive control): significantly increased SirT1
- SirT1 (normalized to protein) (N2a-E4 cells, A03 at 5 or 50 μM vs DMSO): dose-response increase
- SirT1 increase vs DMSO control at 1 μM (secondary assay, N2a-E4 cells, 1 μM, n = 6 wells): modest but significant increases
- SirT1 increase vs DMSO control at 5 and 10 μM (secondary assay, N2a-E4 cells, 5 and 10 μM, n = 6 wells): increased SirT1
